Key:
Homo sapiens = organism: Homo sapiens; assay: Selectivity ratio of EC50 for human recombinant GST-6XHis-tagged full-length cytosolic METAP2 to EC50 for human recombinant full-length cytosolic METAP1
[1] = biological target: Methionine aminopeptidase 2 (Homo sapiens, UniProt P50579); assay: biochemical
Description: Inhibition of human recombinant GST-6XHis-tagged full-length cytosolic METAP2 expressed in cabbage looper BTI-TN-5B1-4 cells using Met-Pro-p-nitroanilide as substrate after 20 mins by spectrophotometric analysis in presence of Bacillus coagulans GST-tagged proline iminopeptidase

[2] = biological target: Methionine aminopeptidase 1 (Homo sapiens, UniProt P53582)
Description: Inhibition of human recombinant full-length cytosolic METAP1 expressed in Escherichia coli BL21(DE3) using Met-Pro-p-nitroanilide as substrate after 20 mins by spectrophotometric analysis in presence of Bacillus coagulans GST-tagged proline iminopeptidase

[3] = biological target: T1, Proline iminopeptidase (Bacillus coagulans) (UniProt P46541); assay: Inhibition of Bacillus coagulans GST-tagged proline iminopeptidase using Pro-p-nitroanilide as substrate at 100 uM relative to control; conditions: Heyndrickxia coagulans
T1 sequence (whole entry): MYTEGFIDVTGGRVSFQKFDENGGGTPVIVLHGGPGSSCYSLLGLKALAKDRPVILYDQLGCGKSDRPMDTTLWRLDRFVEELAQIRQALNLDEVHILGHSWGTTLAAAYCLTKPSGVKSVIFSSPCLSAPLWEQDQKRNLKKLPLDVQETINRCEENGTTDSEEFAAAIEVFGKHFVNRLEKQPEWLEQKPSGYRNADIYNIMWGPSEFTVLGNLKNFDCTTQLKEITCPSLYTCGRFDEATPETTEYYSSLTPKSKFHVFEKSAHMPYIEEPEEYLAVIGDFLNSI

[4] = biological target: T1, Proline iminopeptidase (Bacillus coagulans); assay: Inhibition of Bacillus coagulans GST-tagged proline iminopeptidase using Pro-p-nitroanilide as substrate at 10 uM relative to control; conditions: Heyndrickxia coagulans

Sequence of Methionine aminopeptidase 2 (P50579 whole entry): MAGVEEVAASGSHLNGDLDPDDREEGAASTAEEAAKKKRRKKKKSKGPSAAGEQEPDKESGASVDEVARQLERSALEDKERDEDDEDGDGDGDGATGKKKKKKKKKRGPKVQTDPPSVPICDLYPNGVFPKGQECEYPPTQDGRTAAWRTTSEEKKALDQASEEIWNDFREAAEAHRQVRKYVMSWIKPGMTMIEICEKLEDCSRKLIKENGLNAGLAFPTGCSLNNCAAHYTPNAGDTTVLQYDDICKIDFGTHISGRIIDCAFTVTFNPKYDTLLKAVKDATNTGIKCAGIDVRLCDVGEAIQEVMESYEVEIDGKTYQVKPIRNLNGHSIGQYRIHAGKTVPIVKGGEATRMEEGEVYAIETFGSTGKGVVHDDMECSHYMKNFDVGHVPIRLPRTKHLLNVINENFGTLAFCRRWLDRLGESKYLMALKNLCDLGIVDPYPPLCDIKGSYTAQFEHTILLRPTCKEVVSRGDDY

Row | Structure (SMILES) | Ratio EC50 (Homo sapiens) | IC50 [1] [nM] | IC50 [2] [nM] | inhibition [3] [%] | inhibition [4] [%]
1 | Cc1nc(-c2ccc(Cl)cn2)nc(NC[C@H](NC(=O)CCCCc2ccccc2)c2ccccc2)c1Cl | > 23 | > 30000 | 1300 |  | 
2 | Cc1nc(-c2ccc(Cl)cn2)nc(NC[C@H](NCCCCc2cccs2)c2ccccc2)c1Cl | > 789 | > 300000 | 380 |  | 
3 | Cc1nc(-c2ccc(N3CCCC3)cn2)nc(NC[C@H](NC(=O)CCCN2CCNCC2)c2ccccc2)c1Cl | 1.1 | 1100 | 1700 |  | 
4 | COc1ccnc(-c2nc(C)c(Cl)c(NC[C@H](NC(=O)CCCN3CCNCC3)c3ccccc3)n2)c1 | 26 | 14000 | 530 |  | 
5 | Cc1nc(-c2ccccn2)nc(SCc2ccccc2)c1Cl |  | > 100000 |  |  | 
6 | COc1cccc(-c2nc(C)c(Cl)c(NC[C@H](NC(=O)CCCN3CCNCC3)c3ccccc3)n2)n1 | > 1.5 | > 30000 | 20000 |  | 
7 | Cc1nc(-c2ccc(Cl)cn2)nc(NC[C@H](NCCCCn2cccc2)c2ccccc2)c1Cl | > 200 | > 100000 | 500 |  | 
8 | Cc1nc(-c2ccc(F)cn2)nc(NC[C@H](NC(=O)CCCN2CCNCC2)c2ccccc2)c1Cl | 24 | 1200 | 49 |  | 
9 | Cc1nc(-c2ccc(Cl)cn2)nc(NC[C@H](NCCc2ccccc2)c2ccccc2)c1Cl | > 384 | > 100000 | 260 |  | 
10 | Cc1nc(-c2ccccn2)nc(NC[C@H](NCCCCN2CCNCC2)c2ccccc2)c1Cl |  | 188000 |  |  | 
11 | Cc1nc(-c2ccc(Cl)cn2)nc(NCC(CCCCc2ccccc2)c2ccccc2)c1Cl (configuration not stated) | > 1000 | > 200000 | 200 |  | 
12 | Cc1nc(-c2ccc([N+](=O)[O-])cn2)nc(NC[C@H](NC(=O)CCCN2CCNCC2)c2ccccc2)c1Cl | 47 | 14000 | 300 |  | 
13 | Cc1nc(-c2ccccn2)nc(NCCNc2cccc(C(F)(F)F)n2)c1Cl |  | > 100000 |  |  | 
14 | Cc1nc(-c2ccccn2)nc(NC[C@H](NC(=O)CCCN2CCNCC2)c2ccccc2)c1Cl |  | > 300000 |  |  | 
15 | Cc1cc(NCCc2ccccc2)nc(-c2ccccn2)n1 |  | > 100000 | > 100000 |  | 
16 | CCCOc1ccc(CCCCN[C@@H](CNc2nc(-c3ccc(Cl)cn3)nc(C)c2Cl)c2ccccc2)cc1 | > 250 | > 300000 | 1200 |  | 
17 | Cc1nc(-c2ccc(Cl)cn2)nc(NC[C@H](NCCCCc2ccco2)c2ccccc2)c1Cl | > 909 | > 300000 | 330 |  | 
18 | Cc1nc(-c2ccccn2)nc(NC2CCN(c3ncc(C(F)(F)F)cc3Cl)CC2)c1Cl |  | > 100000 |  |  | 
19 | Cc1nc(-c2ccc(N(C)C)cn2)nc(NC[C@H](NC(=O)CCCN2CCNCC2)c2ccccc2)c1Cl | 12 | 1700 | 140 |  | 
20 | Cc1nc(-c2ccc(Cl)cn2)nc(NCC(CCc2ccccc2)c2ccccc2)c1Cl (configuration not stated) | > 3180 | > 200000 | 63 |  | 
21 | Cc1nc(-c2ccccn2)nc(NC[C@H](NC(=O)CCCN2CCN(CCO)CC2)c2ccccc2)c1Cl |  | > 300000 |  |  | 
22 | Cc1nc(-c2ccccn2)nc(SCCc2ccccc2)c1Cl |  | > 100000 |  |  | 
23 | Cc1nc(-c2ccc(Br)cn2)nc(NC[C@H](NC(=O)CCCN2CCNCC2)c2ccccc2)c1Cl | 161 | 53000 | 330 |  | 
24 | Cc1nc(-c2ccc(Cl)cn2)nc(NC[C@H](NC(=O)CCc2ccccc2)c2ccccc2)c1Cl | > 323 | > 30000 | 93 |  | 
25 | Cc1nc(-c2cc(Cl)ccn2)nc(NC[C@H](NC(=O)CCCN2CCNCC2)c2ccccc2)c1Cl | > 411 | > 300000 | 730 |  | 
26 | Cc1nc(-c2ccc(Cl)cn2)nc(NC[C@H](NCCCc2ccccc2)c2ccccc2)c1Cl | > 1150 | > 300000 | 260 |  | 

Row | Structure (SMILES) | Ratio EC50 (Homo sapiens) | IC50 [1] [nM] | IC50 [2] [nM] | inhibition [3] [%] | inhibition [4] [%]
27 | Cc1nc(-c2ccc(Cl)cn2)nc(NC[C@H](NCCCCCCc2ccccc2)c2ccccc2)c1Cl | > 42 | > 30000 | 710 |  | 
28 | Cc1nc(-c2ccc(Cl)cn2)nc(NC[C@H](NC(=O)Cc2ccccc2)c2ccccc2)c1Cl | 40 | 28000 | 700 |  | 
29 | Cc1nc(-c2ccc(Cl)cn2)nc(NC[C@H](NC(=O)CCCCCc2ccccc2)c2ccccc2)c1Cl | > 45 | > 30000 | 670 |  | 
30 | COc1cccnc1-c1nc(C)c(Cl)c(NC[C@H](NC(=O)CCCN2CCNCC2)c2ccccc2)n1 | > 120 | > 300000 | 2500 |  | 
31 | Cc1nc(-c2cccc(Cl)n2)nc(NC[C@H](NC(=O)CCCN2CCNCC2)c2ccccc2)c1Cl | > 4.2 | > 30000 | 7200 |  | 
32 | Cc1nc(-c2ccc(Cl)cn2)nc(NCC(CCCc2ccccc2)c2ccccc2)c1Cl (configuration not stated) | > 1250 | > 200000 | 160 |  | 
33 | Cc1nc(-c2ccccn2)nc(NC[C@H](NCCCN2CCNCC2)c2ccccc2)c1Cl |  | 108000 |  |  | 
34 | Cc1nc(-c2ccc(Cl)cn2)nc(NC[C@H](NCCCCc2ccc3ccccc3n2)c2ccccc2)c1Cl | > 435 | > 300000 | 690 |  | 
35 | Cc1nc(-c2ccc(Cl)cn2)nc(NC[C@H](NCCCCc2ccc(Cl)cc2)c2ccccc2)c1Cl | > 526 | > 300000 | 570 |  | 
36 | Cc1nc(-c2ccc(Cl)cn2)nc(NC[C@H](NC(=O)CCCc2ccccc2)c2ccccc2)c1Cl | > 188 | > 30000 | 160 |  | 
37 | Cc1nc(-c2ccc(Cl)cn2)nc(NC[C@H](NCCCCc2ccc(C#N)cc2)c2ccccc2)c1Cl | 31 | 16000 | 520 | 97 | 27
38 | Cc1nc(-c2ccc(Cl)cn2)nc(NC[C@H](NC(=O)CCCN2CCNCC2)c2ccccc2)c1Cl | 33 | 1200 | 36 |  | 
39 | Cc1nc(-c2ccccn2)nc(N2CCN(CCO)CC2)c1Cl |  | > 100000 |  |  | 
40 | Cc1nc(-c2ccc(Cl)cn2)nc(NCC(CCCCCc2ccccc2)c2ccccc2)c1Cl (racemic) | > 87 | > 200000 | 2300 |  | 
41 | Cc1nc(-c2ccccn2)nc(NCCc2ccccc2)c1C |  | > 100000 | > 100000 |  | 
42 | COc1ccc(-c2nc(C)c(Cl)c(NC[C@H](NC(=O)CCCN3CCNCC3)c3ccccc3)n2)nc1 | > 1110 | > 300000 | 270 |  | 
43 | Cc1nc(-c2ccc(Cl)cn2)nc(NC[C@H](NCCCCc2ccccc2)c2ccccc2)c1Cl |  | > 100000 |  |  | 
44 | Cc1nc(-c2ncccc2Cl)nc(NC[C@H](NC(=O)CCCN2CCNCC2)c2ccccc2)c1Cl | > 39 | > 300000 | 7600 |  | 
45 | Cc1nc(-c2ccccn2)nc(NCCNc2ccc(C(F)(F)F)cn2)c1Cl |  | > 100000 |  |  | 
46 | Cc1nc(-c2cccnc2)nc(NCc2ccccc2)c1Cl |  | > 100000 | > 100000 |  | 
47 | Cc1nc(-c2ccc(Cl)cn2)nc(NC[C@H](NCc2ccccc2)c2ccccc2)c1Cl | 141 | 31000 | 220 |  | 
48 | Cc1nc(-c2ccccn2)nc(NC[C@H](NCCCCN2CCN(CCO)CC2)c2ccccc2)c1Cl |  | 197000 |  |  | 
49 | Cc1nc(-c2ccccn2)nc(NC[C@H](NCCCN2CCN(CCO)CC2)c2ccccc2)c1Cl |  | 101000 |  |  | 
50 | Cc1nc(-c2ccc(Cl)cn2)nc(NC[C@H](NCCCCCc2ccccc2)c2ccccc2)c1Cl | > 138 | > 100000 | 780 |  | 
51 | Cc1nc(-c2ccc(Cl)cn2)nc(NC[C@H](NCCCCc2ccc(O)cc2)c2ccccc2)c1Cl | > 714 | > 300000 | 420 |  | 
52 | Cc1nc(-c2ccccn2)nc(NC[C@H](NC(=O)CCN2CCN(CCO)CC2)c2ccccc2)c1Cl |  | 114000 |  |  | 
